A short description of the data set: Stability test: accelerated storage of formulations, relative percentage of hydrolysis (RPH) by HPLC (CIPAC MT 46.3). In kind it is physicochemical. The conditions noted are these: for stability (hydrolysis), in words: general statement, in water, on storage, in formulations; for RPH % (relative percentage of hydrolysis): stored at 54° C. for 1 week. The procedure: The stability of the iodosulfuron-methyl-sodium in these compositions was determined by aging samples in heated ovens having the same atmosphere therein, and then comparing the iodosulfuron-methyl-sodium content before and after the aging to determine relative percentage of hydrolysis (RPH). RPH was calculated by the following equation: […]
Iodosulfuron-methyl-sodium content was determined by assaying the compositions with high-pressure liquid chromatography (HPLC) using reverse phase columns and eluants.
Samples prepared in Examples 4, 5 and 6 were stored at 54° C. for 1 week. The procedures are followed according to CIPAC MT 46.3. The concentration of iodosulfuron-methyl-sodium was measured at the end of each storage time by HPLC.

Where [1] appears, read: oil based suspension concentrate (OD) of Example 4, 40 wt% iodosulfuron-methyl-sodium.
[2] abbreviates: soluble granules (SG) of Example 5, 25 wt% iodosulfuron-methyl-sodium.
The mark [3] stands for this setting: water dispersible granules (WG) of Example 6, 25 wt% iodosulfuron-methyl-sodium.

On to `COC(=O)c1ccc(I)cc1S(=O)(=O)NC(=O)[N-]c1nc(C)nc(OC)n1.[Na+]` [Amorphous iodosulfuron-methyl-sodium, sodium salt of methyl 4-iodo-2-[[[[(4-methoxy-6-methyl-1,3,5-triazin-2-yl)amino]carbonyl]amino]sulfonyl]benzoate], for which the “stability (hydrolysis), in words” value (listed as iodosulfuron-methyl-sodium in the amorphous state) is “highly unstable”. The “RPH % (relative percentage of hydrolysis)” value turned out to be 49% under setting [1], 42% under setting [2] and 40% under setting [3].

For `COC(=O)c1ccc(I)cc1S(=O)(=O)NC(=O)[N-]c1nc(C)nc(OC)n1.[Na+]` [Iodosulfuron-methyl-sodium, crystalline modification I] [sodium salt of methyl 4-iodo-2-[[[[(4-methoxy-6-methyl-1,3,5-triazin-2-yl)amino]carbonyl]amino]sulfonyl]benzoate], the “stability (hydrolysis), in words” value (listed as crystalline modification I of iodosulfuron-methyl-sodium) was “significant increase in its stability”. Also, the “RPH % (relative percentage of hydrolysis)” value worked out at 0% under setting [1], 0% under setting [2] and 0% under setting [3].
